PubChem BioAssay AID1208 (EPA DSSTox, 2008)
The source made the active and inactive calls.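 The calls were made as follows: active = at least one rat sex group has a carcinogenic potency value and tumor site recorded; inconclusive = only rat studies were judged inadequate by the national testing program; inactive = no potency or tumor site, with negative rat experiments.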

Tested on: rat chronic carcinogenicity bioassay, TD50
Assay: DSSTox (CPDBAS) Carcinogenic Potency Database Summary Rat Bioassay Results
Conditions: for Potency: stronger effect = lower value
How it was run: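 Chronic long-term rat cancer bioassays from literature and NCI/NTP, taking the most positive result per sex. TD50 in mmol converted to a 1–100 Activity Score from log10(1/TD50). Mixtures lacking TD50 scored 50.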

[1] = TD50_Rat_Note: no positive results
[2] = TD50_Rat_Note: no positive results, TargetSites_Rat_Female: no positive results
[3] = TargetSites_Rat_Female: mammary gland
[4] = TD50_Rat_Note: TD50 is harmonic mean of more than one positive test, TargetSites_Rat_Female: stomach
[5] = TargetSites_Rat_Female: no positive results

## CC[C@H](C)[C@H]1O[C@]2(CC[C@@H]1C)C[C@@H]1C[C@@H](C/C=C(\C)[C@@H](O[C@H]3C[C@H](OC)[C@@H](O[C@H]4C[C@H](OC)[C@@H](O)[C@H](C)O4)[C@H](C)O3)[C@@H](C)/C=C/C=C3\CO[C@@H]4[C@H](O)C(C)=C[C@@H](C(=O)O1)[C@]34O)O2
[1]
  outcome: inactive; no positive results

## Cn1c(N)nc2ncc(-c3ccccc3)cc21
TD50_Rat_Note: TD50 is harmonic mean of more than one positive test, TargetSites_Rat_Female: large intestine, mammary gland
  Potency: 1.78 mg/kg/day

## CCCCNC(=O)NS(=O)(=O)c1ccc(C)cc1
[2]
  outcome: inactive; no positive results

## O=NN1CC=CCC1
TD50_Rat_Note: TD50 is harmonic mean of more than one positive test, harmonic mean of TD50 includes a value for upper 99% confidence li, TargetSites_Rat_Female: esophagus, liver, stomach, vascular system
  Potency: 0.0601 mg/kg/day

## COc1cccc(O)c1O
  Potency: 48.7 mg/kg/day

## Nc1ccc2nc3ccccn3c2n1
TD50_Rat_Note: TD50 is harmonic mean of more than one positive test, TargetSites_Rat_Female: clitoral gland, ear Zymbals gland, large intestine, liver, small intestine
  Potency: 42.3 mg/kg/day

## C[C@@H]1C[C@H](C)CN(S(=O)(=O)c2ccc(Cl)c(C(=O)O)c2)C1
  Potency: 4.85 mg/kg/day

## CC(=O)Nc1ccc(-c2ccccc2)cc1
[3]
  Potency: 1.18 mg/kg/day

## Oc1cccc2cccnc12
[2]
  outcome: inactive; no positive results

## CCOc1ccc(NC(C)=O)cc1N
[2]
  outcome: inactive; no positive results

## C=CC(=O)NCO
[2]
  outcome: inactive; no positive results

## NNC(N)=S
[2]
  outcome: inactive

## N=C1C=CC(=C(c2ccc(N)cc2)c2ccc(N)cc2)C=C1
TD50_Rat_Note: TD50 is harmonic mean of more than one positive test, TargetSites_Rat_Female: ear Zymbals gland, subcutaneous tissue, thyroid gland
  Potency: 39.4 mg/kg/day

## C=CF
TD50_Rat_Note: TD50 is harmonic mean of more than one positive test, TargetSites_Rat_Female: ear Zymbals gland, liver, vascular system
  Potency: 20 mg/kg/day

## [O-][Br+2]([O-])O
TD50_Rat_Note: TD50 is harmonic mean of more than one positive test, TargetSites_Rat_Female: kidney
  Potency: 9.82 mg/kg/day

## CN(N=O)C(=O)Nc1nc2ccccc2s1
TargetSites_Rat_BothSexes: stomach
  Potency: 1.13 mg/kg/day

## CC1CN(N=O)CC(C)N1C (stereo unspecified)
TargetSites_Rat_Female: nasal cavity
  Potency: 0.151 mg/kg/day

## CCCCCCCCCCCCCCCC(=O)CC(=O)CCCCCCCCCCCCCCC
[2]
  outcome: inactive

## CCCCN(N=O)C(=N)N[N+](=O)[O-]
[1]
  outcome: inactive; no positive results

## O=[N+]([O-])c1ccc2ncccc2c1
[2]
  outcome: inactive; no positive results

## O=C(O)c1ccccc1
[1]
  outcome: inactive; no positive results
[2]
  outcome: inactive; no positive results

## C=CCO
[2]
  outcome: inactive; no positive results

## CCN(CC)CCCNC(=O)Cn1ncc(-c2ccccc2)c1-c1ccccc1
[2]
  outcome: inactive; no positive results

## Cc1ccc2c(c1)C(N1CCN(C)CC1)=Nc1ccccc1S2
[2]
  outcome: inactive; no positive results

## FCCl
[4]
  Potency: 27.5 mg/kg/day

## O=C(O)CN(CCN(CC(=O)O)CC(=O)O)CC(=O)O
[2]
  outcome: inactive; no positive results

## NC(=O)N/N=C/c1ccco1
[2]
  outcome: inactive

## Nc1ccccc1C(=O)OC/C=C/c1ccccc1
[5]
  Potency: 12100 mg/kg/day

## CC(O)c1ccccc1 (stereo unspecified)
[5]
  Potency: 458 mg/kg/day

## O=C(O)COc1ccc(Cl)cc1Cl
[2]
  outcome: inactive; no positive results

## CC(C)(OCc1ccc(-c2ccc(Cl)cc2)cc1)C(=O)O
[2]
  outcome: inactive; no positive results

## Cc1cc(C)c(S(=O)(=O)O)cc1N=Nc1cc(S(=O)(=O)O)c2ccccc2c1O
TD50_Rat_Note: TD50 is harmonic mean of more than one positive test, TargetSites_Rat_BothSexes: hematopoietic system
  Potency: 8110 mg/kg/day

## O=NN1CCCCC1
TD50_Rat_Note: TD50 is harmonic mean of more than one positive test, TargetSites_Rat_BothSexes: esophagus, liver, nasal cavity
  Potency: 1.43 mg/kg/day

## CC(C)(C)c1cc([N+](=O)[O-])cc([N+](=O)[O-])c1OS(C)(=O)=O
[2]
  outcome: inactive; no positive results

## O=C(CCl)c1ccccc1
[2]
  outcome: inactive; no positive results

## CCC[CH2][Sn]([CH2]CCC)([O]C(C)=O)[O]C(C)=O
TD50_Rat_Note: no positive results, TargetSites_Rat_Female: NTP bioassay inadequate
  outcome: inactive; no positive results

## ON=C1CCCC1
  Potency: 40.9 mg/kg/day

## CN(C)N
[2]
  outcome: inactive; no positive results

## CN1C(C(=O)Nc2ccccn2)=C(O)c2sc(Cl)cc2S1(=O)=O
[2]
  outcome: inactive; no positive results

## O=[N+]([O-])c1ccc(Oc2ccc(Cl)cc2Cl)cc1
TargetSites_Rat_Female: pancreas
  Potency: 420 mg/kg/day

## Cc1ccc(Cc2cnc(NCCSCc3ccc(CN(C)C)o3)[nH]c2=O)cn1
[4]
  Potency: 3360 mg/kg/day

## CCN(CC)C(=S)S
[2]
  outcome: inactive; no positive results

## C#C[C@]1(OC(C)=O)CC[C@H]2[C@@H]3CCC4=C[C@@H](OC(C)=O)CC[C@@H]4[C@H]3CC[C@@]21C
[2]
  outcome: inactive

## Clc1ccc(C(c2ccc(Cl)cc2)C(Cl)Cl)cc1
[2]
  outcome: inactive; no positive results

## O=C1N(CCO)CCN1/N=C/c1ccc([N+](=O)[O-])o1
[3]
  Potency: 16.7 mg/kg/day

## CCCCOC(=O)c1ccccc1C(=O)OCc1ccccc1
TargetSites_Rat_Female: no positive results- CPDB evaluation based on NCI Technical Report
  Potency: 1040 mg/kg/day

## Cc1ccc(-c2cc(C(F)(F)F)nn2-c2ccc(S(N)(=O)=O)cc2)cc1
[1]
  outcome: inactive; no positive results

## O=Cc1ccccc1
[2]
  outcome: inactive; no positive results

## CNC(=O)c1c(N(C)N=O)ncn1C
TargetSites_Rat_BothSexes: nasal cavity
  Potency: 1 mg/kg/day

## CN(C)CNc1nnc(/C=C/c2ccc([N+](=O)[O-])o2)o1
TargetSites_Rat_Female: lung, mammary gland, small intestine, stomach
  Potency: 22.4 mg/kg/day

## CC(Cl)CCl (stereo unspecified)
[2]
  outcome: inactive; no positive results

## Cc1cccc(C)c1
TD50_Rat_Note: TD50 is harmonic mean of more than one positive test, TargetSites_Rat_Female: oral cavity, Maltoni head cancers
  Potency: 3110 mg/kg/day
[2]
  outcome: inactive; no positive results

## CC(=O)Nc1ccc2c(c1)Cc1ccccc1-2
TD50_Rat_Note: TD50 is harmonic mean of more than one positive test, TargetSites_Rat_Female: liver, mammary gland, skin
  Potency: 1.22 mg/kg/day

## Cc1cc(-c2ccc(N)c(C)c2)ccc1N
TD50_Rat_Note: TD50 is harmonic mean of more than one positive test, TargetSites_Rat_Female: clitoral gland, ear Zymbals gland, large intestine, liver, lung, mammary gland, oral cavity, skin, small intestine
  Potency: 0.629 mg/kg/day

## COP(=O)(OC)O/C(=C\Cl)c1cc(Cl)c(Cl)cc1Cl
TD50_Rat_Note: no positive results, TargetSites_Rat_Female: no positive results- CPDB evaluation based on NCI Technical Report
  outcome: no positive results

## FC(F)Cl
[2]
  outcome: inactive; no positive results

## c1ccc(C2CO2)cc1 (stereo unspecified)
[4]
  Potency: 55.4 mg/kg/day

## Cl/C=C/CCl
[4]
  Potency: 94 mg/kg/day
[2]
  Potency: 100 mg/kg/day

## CC[C@H]1CN2CCc3cc(OC)c(OC)cc3[C@@H]2C[C@@H]1C[C@H]1NCCc2cc(OC)c(OC)cc21
TD50_Rat_Note: only experiment is NCI/NTP bioassay inadequate, TargetSites_Rat_Female: NTP bioassay inadequate
  outcome: ntp bioassay inadequate

## Cc1ccc(O)c(C(C)(C)C)c1
[1]
  outcome: inactive; no positive results

## COc1ccc(C(Cl)=C(c2ccc(OC)cc2)c2ccc(OC)cc2)cc1
[2]
  outcome: inactive; no positive results

## COC(=O)NN
[2]
  outcome: inactive; no positive results

## Nc1nnc(-c2ccc([N+](=O)[O-])o2)s1
TargetSites_Rat_Female: kidney, lung, mammary gland, stomach
  Potency: 0.662 mg/kg/day

## ClCc1ccccc1
[2]
  outcome: inactive; no positive results

## Nc1ccccc1-c1ccccc1
[2]
  outcome: inactive; no positive results

## CN1CCCC1=O
[2]
  outcome: inactive; no positive results

## O=C1c2ccccc2-c2ccc3c4c(ccc1c24)-c1ccccc1C3=O
[2]
  outcome: inactive; no positive results

## C=C1CC[C@H](O)C/C1=C/C=C1\CCC[C@]2(C)[C@@H]([C@H](C)CC[C@@H](O)C(C)(C)O)CC[C@@H]12
[1]
  outcome: inactive; no positive results

## CC(=O)NCc1nc(-c2ccc([N+](=O)[O-])o2)no1
TD50_Rat_Note: no positive results are statistically significant, TargetSites_Rat_Female: kidney, lung
  Potency: 59.6 mg/kg/day

## CC(COc1ccc(C(C)(C)C)cc1)OS(=O)OCCCl (stereo unspecified)
TD50_Rat_Note: TD50 is harmonic mean of more than one positive test, TargetSites_Rat_BothSexes: liver
  Potency: 96.7 mg/kg/day

## O=NN1CN2CN(C1)CN(N=O)C2
[1]
  outcome: inactive; no positive results

## O=NO
TD50_Rat_Note: TD50 is harmonic mean of more than one positive test, TargetSites_Rat_Female: liver, TargetSites_Rat_BothSexes: hematopoietic system
  Potency: 167 mg/kg/day

## Cc1ccc(N)cc1N
TD50_Rat_Note: TD50 is harmonic mean of more than one positive test, TargetSites_Rat_Female: liver, mammary gland
  Potency: 2.47 mg/kg/day
  Potency: 4.42 mg/kg/day

## CCC(C(=O)NC(N)=O)c1ccccc1 (stereo unspecified)
[1]
  outcome: inactive; no positive results

## c1ccc2[nH]c(-c3cscn3)nc2c1
[2]
  outcome: inactive; no positive results

## COc1cc2c(c3c1c(=O)c1ccccc1n3C)C=CC(C)(C)O2
TD50_Rat_Note: positive test results only by intraperitoneal or intravenous injection, TD50 is harmonic mean of more than one positive, TargetSites_Rat_Female: mammary gland, peritoneal cavity
  Potency: 0.505 mg/kg/day

## COC(=O)[C@H]1[C@H]2C[C@@H]3c4[nH]c5ccccc5c4CCN3C[C@H]2C[C@@H](OC(=O)c2cc(OC)c(OC)c(OC)c2)[C@@H]1OC
TD50_Rat_Note: no positive results, TargetSites_Rat_BothSexes: no positive results
  outcome: inactive

## Cc1cc(C)c(N=Nc2c(O)c(S(=O)(=O)O)cc3cc(S(=O)(=O)O)ccc23)cc1C
TD50_Rat_Note: TD50 is harmonic mean of more than one positive test, greater than ten-fold variation among TD50 values for positive res, TargetSites_Rat_Female: liver
  Potency: 521 mg/kg/day

## C=CC(=O)O
[2]
  outcome: inactive; no positive results

## CC(N)=O
TD50_Rat_Note: TD50 is harmonic mean of more than one positive test, TargetSites_Rat_Female: liver
  Potency: 180 mg/kg/day

## O=C(O)c1ccc([N+](=O)[O-])cc1
TargetSites_Rat_Female: clitoral gland
  Potency: 287 mg/kg/day

## CN1C(=O)C[C@@H](C(=O)N[C@@H](Cc2cnc[nH]2)C(=O)N2CCC[C@H]2C(N)=O)NC1=O
[2]
  outcome: inactive; no positive results
